Data: article PMC8151276, “An Integrated Approach toward NanoBRET Tracers for Analysis of GPCR Ligand Engagement” (Molecules, 2021)

Biological target: T1, HRH2 (Homo sapiens, UniProt P25021)
T1 construct: purchased Promega (in-house HiBiT-GPCR construct library, NanoBRET)
Test: NanoBRET screen HiBiT-HRH2 in HEK293
Format: binding
Experimental: Each tracer candidate was screened across the entire library of HiBiT-GPCR constructs using NanoBRET as the detection modality. As depicted in Figure 4A, the specificity of interactions was evaluated through decrease in BRET due to competitive displacement of a bound tracer by excess parental compound. Each tracer was analyzed for binding to each HiBiT-GPCR fusion in the absence and in the presence of competing parental compound. Briefly, HEK293 cells were transfected with HiBiT-GPCR constructs diluted into promoterless DNA to reduce expression and maximize translocation to the cell surface. Each tracer candidate was then screened at concentrations of 1 μM and 0.1 μM across cells expressing these fusions. Cells were treated for 1.5 h with tracer either alone or in the presence of 20 μM competing parental compound (i.e., control). BRET was measured upon addition of purified LgBiT and subsequent complementation with HiBiT genetically fused to a GPCR. The specificity of interactions was assessed through a decrease in BRET signal due to competitive displacement of the bound tracer. To further gauge the robustness of these interactions, the fold response over the control (i.e., BRETtracer/BRETcontrol) was calculated. We chose a 1.5-fold response, which translates to ≥7-fold signal over noise as the minimal threshold required to score an interaction as positive. […]. Below we highlight the screening results obtained for our exemplary fluorescent tracers based on Clozapine, Amitriptyline and AZD1283.
HiBiT-GPCR DNA constructs were diluted in 10 mM Tris pH 8 to a final concentration of 0.01 μg/μL, arrayed in 96-well plates and stored at −20 °C. For transfection, HEK293 cells were suspended in Opti-MEM (without phenol red) supplemented with 2% fetal bovine serum (Seradigm) and 100 units/mL penicillin–streptomycin (Gibco) at a final concentration of 220,000 cells/mL and dispensed into white 96-well plates at 90 μL/well. Subsequent transfections and screens were carried using an Agilent Bravo Automated Liquid Handling Platform. First, the 96-well HiBiT DNA arrays were diluted 25-fold in Opti-MEM (without serum or phenol red) to a final concentration of 0.0004 μg/μL and 20 μL of the diluted DNAs were transferred into new 96-well plates. Next, promoterless carrier DNA (1 μg/μL) was diluted 25-fold (0.04 μg/μL) and then dispensed into the diluted arrays at 20 μL/well. Following brief mixing, Viafect transfection reagent (Promega) diluted 16-fold into Opti-MEM was dispensed into the plates at 40 μL/well. After mixing by pipetting, plates were incubated for 10 min on the pipetting station deck. The DNA-transfection reagent complexes were then added to plates containing cells. To facilitate the screen, 10 μL of DNA-transfection reagent complexes were added in duplicates to the top 4 and bottom 4 rows, resulting in two identical 48-well arrays per plate. Plates with transfected cells were incubated for 18–20 h at 37 °C/5% CO2. A screen of each tracer across the entire library using two different concentrations requires duplicate plates of transfected cells. Depending on the number of tracers being screened, transfections can be scaled up using the same ratios. The next day, for each tracer, four 20× screening solutions in tracer dilution buffer (Promega) were prepared: two duplicates at final concentration of 20 μM and two duplicates at a final concentration of 2 μM. A competing unmodified compound was added to one of each duplicate at a final concentration of 400 μM. The four resulting solutions were diluted 4-fold in Opti-MEM without serum or phenol red to generate 5× solutions (5 µM and 0.5 µM tracer +/− 100 μM competing compound). To screen the library, a BioTek MultiFlo FX liquid dispenser was used to dispense 22.5 µL of tracer solution to the top 4 rows and 22.5 µL tracer + competing compound solution to the 4 bottom rows. Plates were briefly mixed on an orbital shaker and incubated for 1.5 h at room temperature. […]

T1 sequence (P25021 whole entry): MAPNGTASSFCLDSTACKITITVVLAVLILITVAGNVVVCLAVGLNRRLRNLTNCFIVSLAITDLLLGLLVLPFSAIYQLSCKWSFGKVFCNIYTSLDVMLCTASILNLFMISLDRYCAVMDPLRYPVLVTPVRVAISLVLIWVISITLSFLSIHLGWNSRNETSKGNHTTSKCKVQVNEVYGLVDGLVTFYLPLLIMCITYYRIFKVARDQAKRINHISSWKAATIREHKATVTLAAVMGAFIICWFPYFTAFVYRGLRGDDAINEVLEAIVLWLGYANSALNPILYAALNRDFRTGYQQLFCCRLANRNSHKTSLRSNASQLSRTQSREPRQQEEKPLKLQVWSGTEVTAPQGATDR

| SMILES | NanoBRET Fold Response (HRH2, tracer 0.1μM) | NanoBRET Fold Response (HRH2, tracer 1μM) | also measured |
| --- | --- | --- | --- |
| CCOC(=O)c1cc(C#N)c(N2CCC(C(=O)NS(=O)(=O)Cc3ccccc3/C=C/C(=O)NCCNC(=O)CCc3ccc4n3[B-](F)(F)[N+]3=C(c5ccc[nH]5)C=CC3=C4)CC2)nc1C [AZD1283-1-NB590] | – | – | NanoBRET Fold Response (HRH2, 0.1μM): 0.90; NanoBRET Fold Response (HRH2, 1μM): 1.03 |
| N#CN=C(NCCCOc1cccc(CN2CCCCC2)c1)NCCNC(=O)CCOCCOCCOCCOCCNC(=O)CCc1ccc2n1[B-](F)(F)[N+]1=C(c3ccc[nH]3)C=CC1=C2 [Aminopotentidine-2-NB590] | 5.51 | 3.65 | – |
| CN(C)CCC=C1c2ccccc2CCc2ccc(C(=O)NCCNC(=O)CCOCCOCCOCCOCCNC(=O)CCc3ccc4n3[B-](F)(F)[N+]3=C(c5ccc[nH]5)C=CC3=C4)cc21 [Amitriptyline-a-2-NB590] | – | – | NanoBRET Fold Response (tracer at 0.1μM): 1.00; NanoBRET Fold Response (tracer at 1μM): 0.99 |
| CN(C)CCC=C1c2ccccc2CCc2ccc(C(=O)NCCNC(=O)CCOCCOCCOCCOCCNC(=O)CCc3ccc4n3[B-](F)(F)[N+]3=C(c5ccc[nH]5)C=CC3=C4)cc21 [Amitriptyline-b-2-NB590] | – | – | NanoBRET Fold Response (tracer at 0.1μM, listed as amitriptyline-b-2-NB590): 0.85; NanoBRET Fold Response (tracer at 1μM, listed as amitriptyline-b-2-NB590): 1.05 |
| CN(CCC=C1c2ccccc2CCc2ccccc21)C(=O)CCOCCOCCOCCOCCNC(=O)CCc1ccc2n1[B-](F)(F)[N+]1=C(c3ccc[nH]3)C=CC1=C2 [Amitriptyline-e-2-NB590] | – | – | NanoBRET Fold Response (tracer at 1μM): 0.95 |
| COc1ccc2c(n1)c(CCNC(C)=O)cn2CCNC(=O)CCc1ccc2n1[B-](F)(F)[N+]1=C(c3ccc[nH]3)C=CC1=C2 [Azamelatonin-1-NB590] | – | – | NanoBRET Fold Response (0.1μM tracer): 0.99; NanoBRET Fold Response (1μM tracer): 0.99 |
| COc1ccc2[nH]c(-c3ccc(CNC(=O)CCOCCOCCOCCOCCNC(=O)CCc4ccc5n4[B-](F)(F)[N+]4=C(c6ccc[nH]6)C=CC4=C5)cc3)c(CCNC(C)=O)c2n1 [AzomelatoninICO9-2-NB590] | – | – | NanoBRET Fold Response (0.1μM tracer): 1.11; NanoBRET Fold Response (1μM tracer): 1.07 |
| O=C(CCOCCOCCOCCOCCNC(=O)CCc1ccc2n1[B-](F)(F)[N+]1=C(c3ccc[nH]3)C=CC1=C2)NCCCN1CCN(C2=Nc3cc(Cl)ccc3Nc3ccccc32)CC1 [Clozapine-a-2-NB590] | – | – | NanoBRET Fold Response (HRH2, 0.1μM tracer): 0.95; NanoBRET Fold Response (HRH2, 1μM tracer): 0.89 |
| CN1CCN(C2=Nc3cc(Cl)ccc3Nc3ccc(CNC(=O)CCOCCOCCOCCOCCNC(=O)CCc4ccc5n4[B-](F)(F)[N+]4=C(c6ccc[nH]6)C=CC4=C5)cc32)CC1 [Clozapine-b-2-NB590] | – | – | NanoBRET Fold Response (HRH2, 0.1μM tracer): 1.01; NanoBRET Fold Response (HRH2, 1μM tracer): 0.97 |
| CN1CCN(C2=Nc3cc(Cl)ccc3N(CC(=O)NCCOCCOCCOCCOCCNC(=O)CCc3ccc4n3[B-](F)(F)[N+]3=C(c5ccc[nH]5)C=CC3=C4)c3ccccc32)CC1 [Clozapine-c-2-NB590] | – | – | NanoBRET Fold Response (HRH2, 0.1μM tracer): 0.92; NanoBRET Fold Response (HRH2, 1μM tracer): 0.95 |
| O=C(CCOCCOCCOCCOCCNC(=O)CCc1ccc2n1[B-](F)(F)[N+]1=C(c3ccc[nH]3)C=CC1=C2)NCCCN1CCN(C2=Nc3ccccc3Oc3ccc(Cl)cc32)CC1 [Loxapine-a-2-NB590] | 0.79 | 1.06 | – |
| COc1ccccc1N1CCN(CCCCN2C(=O)c3ccc(CNC(=O)CCOCCOCCOCCOCCNC(=O)CCc4ccc5n4[B-](F)(F)[N+]4=C(c6ccc[nH]6)C=CC4=C5)cc3C2=O)CC1 [NAN-190-2-NB590] | 0.94 | – | – |
| COc1ccccc1N1CCN(CCCCN2C(=O)c3ccc(CNC(=O)CCOCCNC(=O)c4ccc(CNC(=O)CCc5ccc6n5[B-](F)(F)[N+]5=C(c7ccc[nH]7)C=CC5=C6)cc4)cc3C2=O)CC1 [NAN-190-3-NB590] | 1.07 | 1.08 | – |
| O=C(CCc1ccc2n1[B-](F)(F)[N+]1=C(c3ccc[nH]3)C=CC1=C2)NCc1ccc(C(=O)NCCOCCC(=O)N[C@@H]2CC[C@@]3(O)[C@H]4Cc5ccc(O)c6c5[C@@]3(CCN4CC3CC3)[C@H]2O6)cc1 [Naltrexone-3-NB590] | 0.85 | 1.34 | – |
| Cc1cc2c(s1)Nc1ccccc1N=C2N1CCN(CCCNC(=O)CCOCCOCCOCCOCCNC(=O)CCc2ccc3n2[B-](F)(F)[N+]2=C(c4ccc[nH]4)C=CC2=C3)CC1 [Olanzapine-a-2-NB590] | 0.89 | 0.85 | – |
| O=C(CCc1ccc2n1[B-](F)(F)[N+]1=C(c3ccc[nH]3)C=CC1=C2)NCc1ccc(C(=O)NCCOCCOCCNCC(O)COc2cccc3ccccc23)cc1 (stereo not shown) [Propranolol-3-NB590] | – | – | NanoBRET Fold Response (HRH2, 0.1μM): 1.12; NanoBRET Fold Response (HRH2, 1μM): 0.97 |
| O=C(CCc1ccc2n1[B-](F)(F)[N+]1=C(c3ccc[nH]3)C=CC1=C2)NCCOCCOCCNC(=O)OCCOCCN1CCN(C2=Nc3ccccc3Sc3ccccc32)CC1 [Quetiapine-a-2-NB590] | 0.81 | 1.05 | – |
| Cc1nc2n(c(=O)c1CCN1CCC(c3noc4cc(F)ccc34)CC1)CCCC2OC(=O)NCCOCCOCCOCCOCCNC(=O)CCc1ccc2n1[B-](F)(F)[N+]1=C(c3ccc[nH]3)C=CC1=C2 (stereo not shown) [Risperidone-2-NB590] | 1.05 | 1.13 | – |
| CC(C)N(CC[C@H](c1ccccc1)c1cc(CCNC(=O)CCOCCOCCOCCOCCNC(=O)CCc2ccc3n2[B-](F)(F)[N+]2=C(c4ccc[nH]4)C=CC2=C3)ccc1O)C(C)C [Tolterodine-2-NB590] | 1.06 | 0.82 | – |
| CC(C)N(CC[C@H](c1ccccc1)c1cc(CCNC(=O)c2ccc(CNC(=O)CCc3ccc4n3[B-](F)(F)[N+]3=C(c5ccc[nH]5)C=CC3=C4)cc2)ccc1O)C(C)C [Tolterodine-BZ-NB590] | 1.05 | 0.87 | – |
| CCCn1c(=O)c2[nH]c(-c3ccc(OCC(=O)NCCNC(=O)CCOCCNC(=O)c4ccc(CNC(=O)CCc5ccc6n5[B-](F)(F)[N+]5=C(c7ccc[nH]7)C=CC5=C6)cc4)cc3)nc2n(CCC)c1=O [XAC-3-NB590] | 0.82 | 1.15 | – |
